Laboratory results taken from patent EP4125905B1, “REGIMEN FOR TREATING A NEISSERIA GONORRHOEAE INFECTION WITH GEPOTIDACIN” (GlaxoSmithKline Intellectual Property Development Limited, priority 2020, dated 2021).
Values after ≈ are worked out from the molar mass of the structure shown. Where two headings read alike, the source gives them in different places.

Assays:
NG clinical isolate [1] = assay: microbe, parasite or virus in culture; format: cell-based; settings: Neisseria gonorrhoeae
NG isolate = format: cell-based, Neisseria gonorrhoeae
Experimental: The results were discussed in VanScoy BD et al., A Hollow-Fiber Infection Model to Evaluate the Prevention of On- Therapy Resistance of Neisseria gonorrhoeae to Gepotidacin.
10 mL of an initial bacterial density of 10^6 colony forming units (CFU)/mL was inoculated into the hollow-fiber cartridge (Fibercell Systems, Frederick, MD), utilizing modified FB medium.
Samples were collected for observation of simulated pharmacokinetic profiles and enumeration of bacterial burden over the study duration. All bacterial samples were plated on drug-free and agar supplemented with 2 x the agar MIC value of each respective challenge compound.

[2] = Plasma and pulmonary (ELF, AM) pharmacokinetics after intravenous gepotidacin in healthy adult subjects; format: in vivo, human
Experimental: (§1) Gepotidacin exposures were assessed in plasma and other matrices, such as urine, saliva, epithelial lining fluid (ELF), Alveolar Macrophages (AM), cervix, rectum and pharynx, as follows: • 1. Plasma, Epithelial Lining Fluid (ELF) and Alveolar Macrophage (AM) samples: A study to evaluate plasma and pulmonary pharmacokinetics (PK) following intravenous administration of gepotidacin in healthy adult subjects was conducted (see M Hossain, EF Dumont. Population Pharmacokinetic Modeling of Plasma and Epithelial Lining Fluid Data for a Novel Antimicrobial Compound. 54th Annual Interscience Conference on Antimicrobial Agents and Chemotherapy Meeting, 5-9 September 2014, Washington, D.C., USA). • 2. Saliva, Urine and plasma samples: • a. A single-dose study to assess the PK of oral gepotidacin in male and female adult participants with varying degrees of hepatic impairment and in matched control participants with normal hepatic function (J. Hands et al. Pharmacokinetics of Gepotidacin in Subjects with Hepatic Impairment. ID Week, 2-6 October 2019, Washington DC, USA) • b. A single-dose study to assess the PK of gepotidacin in adult subjects with varying degrees of renal impairment and in matched control subjects with normal renal function • 3. Urine, plasma, cervix, rectum and pharynx swabs: In a Phase 2a, single-center, single-arm, open-label study in the Unites States from July 2018 to January 2019 (see Overcash et al., Open Forum Infectious Diseases, Volume 6, Issue Supplement 2, October 2019, Page S539, https://doi.org/10.1093/ofid/ofz360.1343), a total of 22 female participants with uncomplicated Urinary Tract Infection (uUTI) were enrolled and evaluated for pharmacokinetics (PK), safety, and clinical efficacy. Participants were confined to the clinic from baseline (Days -1 to 1 predose) through on-therapy (Days 1 to 5) and returned as outpatients for test-of-cure (TOC; Days 10 to 13) and follow-up (Day 28t3). Participants received oral gepotidacin 1,500 mg twice daily (BID) for 5 days. […] The majority of participants were white, age ranged from 19 to 60 years, and body mass index ranged from 20.9 to 37.9 kg/m^2. The number of past uUTI episodes ranged from 0 to 10 over the past 12 months across participants; the majority of participants reported ≤2 episodes. The mean total clinical symptom score at baseline was 7.9 (range: 4 to 12). All participants reported frequency and urgency, and all but 1 participant (5%) reported dysuria. Gepotidacin exposures in urine, cervix, rectum and pharynx were assessed.
Plasma, Epithelial Lining Fluid (ELF) and Alveolar Macrophage (AM) PK were assessed following a single IV infusion of 1000 mg gepotidacin over 2 hours. […] Concentrations in AM and ELF changed in a similar manner as in plasma over the 12-hour sampling period.

[3] = Single-dose saliva, urine and plasma PK of oral gepotidacin in hepatic impairment and matched controls; format: in vivo, human; settings: for urinary exposure (AUC[0-48]) relative to matched healthy controls: 1500 mg orally
Experimental: Gepotidacin exposures were assessed in plasma and other matrices, such as urine, saliva, epithelial lining fluid (ELF), Alveolar Macrophages (AM), cervix, rectum and pharynx, as follows: • 1. Plasma, Epithelial Lining Fluid (ELF) and Alveolar Macrophage (AM) samples: A study to evaluate plasma and pulmonary pharmacokinetics (PK) following intravenous administration of gepotidacin in healthy adult subjects was conducted (see M Hossain, EF Dumont. Population Pharmacokinetic Modeling of Plasma and Epithelial Lining Fluid Data for a Novel Antimicrobial Compound. 54th Annual Interscience Conference on Antimicrobial Agents and Chemotherapy Meeting, 5-9 September 2014, Washington, D.C., USA). • 2. Saliva, Urine and plasma samples: • a. A single-dose study to assess the PK of oral gepotidacin in male and female adult participants with varying degrees of hepatic impairment and in matched control participants with normal hepatic function (J. Hands et al. Pharmacokinetics of Gepotidacin in Subjects with Hepatic Impairment. ID Week, 2-6 October 2019, Washington DC, USA) • b. A single-dose study to assess the PK of gepotidacin in adult subjects with varying degrees of renal impairment and in matched control subjects with normal renal function • 3. Urine, plasma, cervix, rectum and pharynx swabs: In a Phase 2a, single-center, single-arm, open-label study in the Unites States from July 2018 to January 2019 (see Overcash et al., Open Forum Infectious Diseases, Volume 6, Issue Supplement 2, October 2019, Page S539, https://doi.org/10.1093/ofid/ofz360.1343), a total of 22 female participants with uncomplicated Urinary Tract Infection (uUTI) were enrolled and evaluated for pharmacokinetics (PK), safety, and clinical efficacy. […] Gepotidacin exposures in urine, cervix, rectum and pharynx were assessed.
(§2) Saliva, Urine and Plasma concentrations were determined after administration of gepotidacin 750 mg IV (healthy and renally impaired subjects) and 1500 mg orally (healthy and hepatically impaired subjects, as well as uUTI patients). […]

[4] = Single-dose saliva, urine and plasma PK of gepotidacin in renal impairment and matched controls; format: in vivo, human
Experimental: as §1, §2

[5] = Phase 2a study in female participants with uUTI: urine, plasma, cervical, rectal and pharyngeal swab PK and safety; format: in vivo, human
Experimental: as §1
Plasma, cervix, rectum and pharynx swabs were collected after administration of gepotidacin 1500 mg BID to uUTI patients. […] TABLE 1 Summary of gepotidacin cervical, rectal, pharyngeal, and free plasma concentration time data (µg/ml) (pharmacokinetic population)

NG clinical isolate [6] = assay: MIC determination in fastidious broth (FB) medium modified to lack agarose; format: cell-based; settings: Neisseria gonorrhoeae, read-out: gepotidacin broth MIC
Experimental: The NG clinical isolate evaluated was known to be ciprofloxacin-resistant (minimum inhibitory concentration [MIC]= 2 mg/L), susceptible to ceftriaxone (MIC = 0.004 mg/L), and with a gepotidacin agar/broth MIC of 1/0.5 mg/L. The isolate was collected during the Phase 2 clinical study mentioned above, and contained the mutation, ParC D86N.
In order to evaluate the MIC of each challenge compound under the liquid conditions utilized in the HFIM, MIC values were determined using fastidious broth (FB) medium modified to lack agarose.

[7] = Safety and pharmacokinetics in healthy adults and adolescents; format: in vivo, human
Experimental: Healthy adults and adolescents within the age ranges of 19-64 and 12-17 years old, respectively, participated in the study.
In Part 1 of the study, gepotidacin was administered with food to healthy adults (≥ 18 years) in period 1 (1500 mg oral single dose), followed by period 2 (3000 mg x 2 oral doses Q12h) and period 3 (3000 mg x 2 oral doses Q6h).
In Part 2 of the study, gepotidacin was administered with food to adolescents (12 to < 18 years) at the same dose regimens as period 1 (1500 mg oral single dose) and period 3 (3000 mg x 2 oral doses Q6h).

urogenital NG = settings: cited from earlier work
urogenital NG isolates = settings: cited from earlier work
[8] = single IV infusion of 1000 mg over 2 hours, AM versus ELF
[9] = 1500 mg BID, Day 4, 2 hours postdose
[10] = Period 1, 1500 mg oral single dose

**Q.** Which MIC (NG clinical isolate [1]; read-out: minimum inhibitory concentration [MIC]) does the source give for `CO/N=C(\C(=O)N[C@@H]1C(=O)N2C(C(=O)O)=C(CSc3nc(=O)c(=O)[nH]n3C)CS[C@H]12)c1csc(N)n1` [ceftriaxone, reference compound] here?
**A.** 0.004 µg/mL (≈ 0.00721 µM)

**Q.** What about the “performance of controls in the hollow fibre infection model” value (NG isolate; isolate resistant to ciprofloxacin and susceptible to ceftriaxone, simulated 0.5 g oral ciprofloxacin, 0.25 g IM ceftriaxone) of the same molecule?
**A.** performed as expected

**Q.** What does the source list for `O=c1ccc2ncc(=O)n3c2n1C[C@H]3CN1CCC(NCc2cc3c(cn2)OCCC3)CC1` [gepotidacin, (2R)-2-({4-[(3,4-Dihydro-2H-pyrano[2,3-c]pyridin-6-ylmethyl)amino]-1-piperidinyl}methyl)-1,2-dihydro-3H,8H-2a,5,8a-triazaacenaphthylene-3,8-dione]?
**A.** Kp ([2]; human, alveolar macrophages / free plasma, single IV infusion of 1000 mg over 2 hours, read-out: AUC(0-12) ratio of AM to free plasma): 178; Kp ([2]; human, epithelial lining fluid / free plasma, single IV infusion of 1000 mg over 2 hours, read-out: AUC(0-12) ratio of ELF to free plasma): 1.84; fraction unbound ([2]; human, plasma, read-out: gepotidacin free fraction): 0.67; AM exposure AUC(0-12), higher than in ELF [2, 8]: ~97 fold; AM exposure Cmax, higher than in ELF [2, 8]: approximately 120 fold; Kp ([3]; human, saliva / unbound plasma, stated across the renal and hepatic impairment studies, read-out: ratio of saliva AUC to unbound plasma AUC (RAUC)): ≥ 0.75; urinary exposure (AUC[0-48]) relative to matched healthy controls ([3]; moderate hepatic impairment): approximately 3.2 fold; urinary exposure (AUC[0-48]) relative to matched healthy controls ([3]; severe hepatic impairment): ~3.9 fold; gepotidacin dose excreted in the urine ([4]; ESRD subjects on hemodialysis): Less than 2%; gepotidacin dose removed in the urine (fe%) ([4]; End-Stage Renal Disease (ESRD) subjects not on hemodialysis): 7.9%; gepotidacin dose removed in the urine (fe%) ([4]; moderate renal impairment subjects): 22.1%; gepotidacin dose removed in the urine (fe%) ([4]; normal renal function subjects): 37.4%; Cervical concentration, Maximum [5, 9]: 4.25 µg/mL; Cervical concentration, Mean [5, 9]: 1.03 µg/mL; Cervical concentration, Minimum [5, 9]: 0.0190 µg/mL; Free plasma concentration, Maximum [5, 9]: 7500 ng/mL; Free plasma concentration, Mean [5, 9]: 3940 ng/mL; Free plasma concentration, Minimum [5, 9]: 938 ng/mL; Pharyngeal concentration, Maximum [5, 9]: 0.527 µg/mL; Pharyngeal concentration, Mean [5, 9]: 0.140 µg/mL; Pharyngeal concentration, Minimum [5, 9]: 0.0118 µg/mL; Rectal concentration, Maximum [5, 9]: 90.90 µg/mL; Rectal concentration, Mean [5, 9]: 12.3 µg/mL; Rectal concentration, Minimum [5, 9]: 0.0989 µg/mL; Cervical concentration, Maximum ([5]; 1500 mg BID, Day 4, Predose): 5.94 µg/mL; Cervical concentration, Mean ([5]; 1500 mg BID, Day 4, Predose): 1.30 µg/mL; Cervical concentration, Minimum ([5]; 1500 mg BID, Day 4, Predose): 0.0601 µg/mL; Free plasma concentration, Maximum ([5]; 1500 mg BID, Day 4, Predose): 1330 ng/mL; Free plasma concentration, Mean ([5]; 1500 mg BID, Day 4, Predose): 618 ng/mL; Free plasma concentration, Minimum ([5]; 1500 mg BID, Day 4, Predose): 308 ng/mL; Pharyngeal concentration, Maximum ([5]; 1500 mg BID, Day 4, Predose): 0.165 µg/mL; Pharyngeal concentration, Mean ([5]; 1500 mg BID, Day 4, Predose): 0.0330 µg/mL; Pharyngeal concentration, Minimum ([5]; 1500 mg BID, Day 4, Predose): 0.00275 µg/mL; Rectal concentration, Maximum ([5]; 1500 mg BID, Day 4, Predose): 36.30 µg/mL; Rectal concentration, Mean ([5]; 1500 mg BID, Day 4, Predose): 6.04 µg/mL; Rectal concentration, Minimum ([5]; 1500 mg BID, Day 4, Predose): 0.0678 µg/mL; discontinuations due to adverse events (AEs) ([5]; oral 1,500 mg BID for 5 days, uUTI participants): no discontinuations due to adverse events; urine Ctau exposures ([5]; uUTI patients, 1500 mg BID, from Day 3 onwards): 322 to 352 µg/mL; minimum gepotidacin urine concentrations ([5]; uUTI patients, remained above MIC over the 12-hour dosing interval): > 4 µg/mL; MIC (NG clinical isolate [1]; read-out: gepotidacin MIC): 1 µg/mL (≈ 2.23 µM); MIC (NG clinical isolate [1]; read-out: gepotidacin agar MIC): 1 µg/mL (≈ 2.23 µM); MIC (NG clinical isolate [6]): 0.5 µg/mL (≈ 1.11 µM); doses preventing amplification of resistance within the system (NG isolate; gepotidacin-resistant subpopulation on Day 7): ≥ 4.5 g; total daily doses that prevented resistance amplification (NG isolate; including 2 doses of 3g administered 8 or 12 hours apart): ≥ 4500 mg; doses sterilizing the system (NG isolate; over the seven-day period, simulated single oral doses 0.75 to 12 g): ≥ 4.5 g; tolerability ([7]; 1500 mg oral single dose, adults and adolescents, few mild GI AEs): generally well tolerated; maximum concentration (Cmax), adolescents compared to adults [7, 10]: similar; median area under the curve (AUC), adolescents compared to adults [7, 10]: slightly higher; AUC following the second dose, adolescents versus adults ([7]; Period 3, Q6h regimen): higher; Cmax following the second dose, adolescents versus adults ([7]; Period 3, Q6h regimen): similar; subjects above the value of potential clinical concern, observed ([7]; adolescents Q6h, 3000 mg x 2 oral doses): 58%; subjects above the value of potential clinical concern, observed ([7]; adults Q6h, 3000 mg x 2 oral doses): 46%; subjects above the value of potential clinical concern, observed ([7]; adults Q12h, 3000 mg x 2 oral doses): 15%; AUC0-t exposures following the first dose, Q12 versus Q6h ([7]; adults, 3000 mg dose level): similar; accumulation ratios, Q6h as compared to Q12h ([7]; adults, 3000 mg x 2 oral doses): Higher; safety issues related to QT or AchE-I ([7]; in vivo): No observed safety issues; participants who failed therapy at the urogenital body site (urogenital NG; Phase II study, total): 3; microbiological successes (bacterial eradication) (urogenital NG; of the 8 participants with D86N-positive baseline urogenital NG isolates): 5; efficacy (bacterial eradication) against urogenital infection caused by NG (urogenital NG; single oral dose 1.5g (1500 mg)): ≥ 95%; efficacy (bacterial eradication) against urogenital infection caused by NG (urogenital NG; single oral dose 3g (3000 mg)): ≥ 95%; baseline gepotidacin MIC (urogenital NG isolates; 2 microbiological successes with D86N-positive baseline organisms): 1 µg/mL; TOC gepotidacin MICs (urogenital NG isolates; 2 posttreatment isolates that had become resistant): ≥ 32 µg/mL
